Source: US20210310040A1, “SUSCEPTIBILITY AND RESISTANCE OF MICROORGANISMS” (priority 2017, published 2021)
In brackets after ≈: the same amount, converted by molar mass.

Assays:
ATCC 25922 (Pan-S) = assay: Susceptibility by perturbation of VOCs, single indicator response after addition of antibiotic; type: cell-based, E. coli
Text: (§1) However, it has been discovered that detection of changes in VOC output of microorganism—in addition to changes in the number of microorganisms—can be detected by the sensor 808 after application of antibiotics. The change in the sensor 808 response can also be correlated to susceptibility of the microorganism to antibiotics. For instance, it has been discovered that after application of antibiotics, certain sensors decrease or show less response at certain concentrations. This change in VOC output can be correlated to the resistance or susceptibility of the microorganisms in the sample to the antibiotic or other substance introduced. In other examples, a change in compound output that remain in solution (not limited to VOCs) may be correlated to a susceptibility of the microorganisms.
For instance, FIG. 48 illustrates an example of the response of the red spectrum of a single indicator (e.g. an indicator containing ZnTPP and Bromophenol Blue) on the sensor 808 in the presence of a sample. As shown, the antibiotic is added at 0.5 hours—in the example of the susceptible microorganism ATCC 25922 (Pan-S), the indicator red component drops off dramatically. The results can be noticed almost a half an hour to an hour after adding the antibiotic—far faster than to notice a general decline in emission of VOCs due to cell death or lack of growth of microorganisms. […]

E. coli AR 84 (ESBL) = assay: as above; type: cell-based; conditions: at all concentrations of Ampicillin
Text: as §1
In the resistant strain illustrated in FIG. 48, AR 84 (ESBL), the antibiotic is added at the same time, but the red component of the sensor response continues to increase over time. […] Accordingly, in this embodiment, the sensor 808 response of a single indicator may be monitored. Changes in the slope of the indicator response over time, or decreases in the indicator may be monitored to determine when there is potentially a susceptible organism. […]

K. pneumoniae IS-007 [1] = conditions: cited from earlier work
K. pneumoniae IS-133 = conditions: cited from earlier work
K. pneumoniae IS-007 [2] = assay: Colorimetric sensor array susceptibility test on solid growth media; type: cell-based, Klebsiella pneumoniae
Text: (§2) To detect and identify a microorganism by species and/or strain, a sample including the microorganism is placed in a container including culture medium and a colorimetric array, and the temporal response of the sensors to the metabolic products of the microorganism is monitored. Susceptibility can be assessed by inoculating a growth medium including a substance (e.g., an antibiotic) with a microorganism and monitoring the response of the sensors while also monitoring the response of a control (e.g., no antibiotic).
(§3) FIG. 8 depicts an embodiment of a container 800 configured for use to assess a susceptibility or resistance of microorganisms. Container 800 includes base 802 and lid 804, with wells 806 positioned in base 802 opposite colorimetric sensor arrays 808 on lid 804. Microorganisms may be placed in contact with growth medium (e.g., a solid or liquid growth medium) in wells 806. A substance (e.g., a drug such as an antibiotic) may be added to the growth medium. In one example, rows and columns of wells 802 in container 800 may be used for different microorganisms, different substances (e.g., drugs including antibiotics that may potentially kill the microorganisms), and/or different concentrations of substances. After samples are loaded on wells 802, a lid 804 may be positioned over base 802, such that each colorimetric sensor array 808 is proximate a well 806 and in gaseous (or liquid) communication. In other embodiments, various other configurations could be utilized to bring the gas and volatile organic compounds emitted from the sample into gaseous proximity of the sensor array 808 at sufficient gaseous concentrations. The response of the sensor arrays 808 recorded by various detectors may then be assessed in order to determine a susceptibility or resistance of the various antibiotics or substances cultured with the sample. Susceptibility may be assessed via temporal response of the sensors in colorimetric sensor arrays 808 as described herein. Container 800 can be positioned in an apparatus (e.g., apparatus 700) for automated assessment of susceptibility and/or resistance.
(§4) FIGS. 9A-B show susceptibility of K. pneumoniae strains obtained in 6 hours in Muller-Hinton agar (x axis indicates time in hours). Susceptibility is indicated by a lack of metabolic products compared to controls (no antibiotic). […] FIGS. 10A-C show susceptibility of S. aureus strains obtained in 6 hours in Muller-Hinton agar.
(§5) In another susceptibility test, three strains of K. pneumoniae were inoculated onto the solid growth media with no antibiotic (control), piperacillin/tazobactam (PIP/TAZO) at concentrations of 16 ug/ml and 4 ug/ml, Cefepime at 8 ug/ml and Meropenem at 1 ug/ml. […] K. pneumoniae IS-020 was susceptible to all 3 antibiotics in agreement with known susceptibility information that this strain is susceptible to PIP/Tazo at <4 ug/ml, Cefepime <1 ug/ml and Meropenem at <0.25 ug/ml). K. pneumoniae IS-133 is known to be resistant at concentrations of PIP/Tazo below 128 ug/ml, Cefepime below 64 ug/ml and Meropenem below 16 ug/ml.

K. pneumoniae IS-020 [3] = assay: as above; type: cell-based, Klebsiella pneumoniae
Text: as §2, §3, §4, §5

K. pneumoniae IS-020 [4] = conditions: cited from earlier work
S. aureus 29213 (MSSA) = assay: Susceptibility by perturbation of VOCs, single indicator response with antibiotic; type: cell-based; conditions: Staphylococcus aureus, observed in about 2.5 hours, FIG. 52
Text: as §1
FIG. 52 illustrates two graphs showing the MIC observed for two different antibiotics to S. aureus 29213 (MSSA). The graph on the left portion of FIG. 52 illustrates a MIC of 1 μg/ml to Cefoxitin and the graph on the right illustrations a MIC of 0.5 μg/ml of Vancomycin.

E. coli (AR85) = assay: as above; type: cell-based; conditions: Escherichia coli; observed after 2.5 hours, FIG. 50; read-out: minimum inhibitory concentration (MIC)
Text: as §1
FIG. 50 illustrates a graph showing the sensor response of a single sensor 808, dye or indicator to a sample of E. coli incubated in the presence of different concentrations of Ertapenem—a Carbapenem family of antibiotic. As illustrated, the single indicator can not only determine whether this strain of E. coli (AR85) is resistant to Ertapenem, but also the minimum inhibitory concentration (“MIC”). As illustrated, the minimum inhibitory concentration of 2 μg/ml is observed only after 2.5 hours. […]

S. aureus IS-123 [5] = conditions: cited from earlier work
S. aureus IS-120 [6] = conditions: cited from earlier work
S. aureus IS-124 [7] = conditions: cited from earlier work
S. aureus IS-124 [8] = assay: Colorimetric sensor array susceptibility test on solid growth media; type: cell-based, Staphylococcus aureus
Text: as §2, §3, §4
(§6) In another susceptibility test, three strains of S. aureus were inoculated onto the solid growth media. […] S. aureus IS-124 was susceptible to both antibiotics in agreement with known susceptibility information that this strain is susceptible to Oxacillin and Vancomycin.

S. aureus IS-120 [9] = assay: as above; type: cell-based, Staphylococcus aureus
Text: as §2, §3, §4, §6

S. aureus IS-123 [10] = assay: as above; type: cell-based, Staphylococcus aureus
Text: as §2, §3, §4, §6

[11] = PIP/TAZO at 16 ug/ml and 4 ug/ml

For CC1(C)S[C@@H]2[C@H](NC(=O)[C@H](N)c3ccccc3)C(=O)N2[C@H]1C(=O)O [Ampicillin], the “sensor response of single indicator after addition of antibiotic (FIG. 49)” value (ATCC 25922 (Pan-S); Ampicillin at 0.5 mg/ml and 1.0 mg/ml) was “same response”, the MIC (ATCC 25922 (Pan-S); Escherichia coli, ATCC25922, single sensor or indicator, FIG. 53) was 1 to 8 µg/mL (≈ 2.86 to 22.9 µM) and the “sensor response of single indicator after addition of antibiotic (FIG. 49)” value (E. coli AR 84 (ESBL)) was “decline in sensor response”.
For CO/N=C(\C(=O)N[C@@H]1C(=O)N2C(C(=O)[O-])=C(C[N+]3(C)CCCC3)CS[C@H]12)c1csc(N)n1 [Cefepime], the “known susceptibility information: concentration at which strain is susceptible” value (K. pneumoniae IS-007 [1]) is given as under 0.25 µg/mL, the “known susceptibility information: concentration below which strain is resistant” value (K. pneumoniae IS-007 [1]) is given as “below 64 ug/ml” and the “known to be resistant at concentrations below” value (from here on “known to be resistant”) (K. pneumoniae IS-133) is given as “below 64 ug/ml”. For the same compound, the “susceptibility or resistance by sensor response compared to control” value (K. pneumoniae IS-007 [2]; Cefepime at 8 ug/ml) was “resistance”, the “susceptibility or resistance by sensor response compared to control” value (K. pneumoniae IS-020 [3]; Cefepime at 8 ug/ml) was “susceptible” and the “known susceptibility information: concentration at which strain is susceptible” value (K. pneumoniae IS-020 [4]) was under 1 µg/mL.
Compound CO[C@@]1(NC(=O)Cc2cccs2)C(=O)N2C(C(=O)O)=C(COC(N)=O)CS[C@@H]21 [Cefoxitin] has an MIC (S. aureus 29213 (MSSA)) of 1 µg/mL (≈ 2.34 µM).
C[C@@H](O)[C@H]1C(=O)N2C(C(=O)O)=C(S[C@@H]3CN[C@H](C(=O)Nc4cccc(C(=O)O)c4)C3)[C@H](C)[C@H]12 [Ertapenem] showed an MIC (E. coli (AR85)) of 2 µg/mL (≈ 4.21 µM).
For C[C@@H](O)[C@H]1C(=O)N2C(C(=O)O)=C(S[C@@H]3CN[C@H](C(=O)N(C)C)C3)[C@H](C)[C@H]12 [Meropenem], the “known to be resistant” value (K. pneumoniae IS-133) is listed as “below 16 ug/ml”, the “susceptibility or resistance by sensor response compared to control” value (K. pneumoniae IS-007 [2]; Meropenem at 1 ug/ml) is listed as “susceptibility” and the “susceptibility or resistance by sensor response compared to control” value (K. pneumoniae IS-020 [3]; Meropenem at 1 ug/ml) is listed as “susceptible”. For the same compound, the “known susceptibility information: concentration at which strain is susceptible” value (K. pneumoniae IS-020 [4]) was under 0.25 µg/mL.
For Cc1onc(-c2ccccc2)c1C(=O)N[C@@H]1C(=O)N2[C@@H]1SC(C)(C)[C@@H]2C(=O)O [Oxacillin], the “known susceptibility information: concentration below which strain is resistant” value (S. aureus IS-123 [5]) is given as “below 4 ug/ml”, the “known susceptibility information: concentration below which strain is resistant” value (S. aureus IS-120 [6]) is given as “below 4 ug/ml” and the “known susceptibility information: susceptible or resistant” value (S. aureus IS-124 [7]) is given as “susceptible”. The “susceptibility or resistance by sensor response” value (S. aureus IS-124 [8]) was “susceptible”, the “susceptibility or resistance by sensor response” value (S. aureus IS-120 [9]; Oxacillin at 2 ug/ml) was “resistance” and the “susceptibility or resistance by sensor response” value (S. aureus IS-123 [10]; Oxacillin at 2 ug/ml) was “resistance”.
In the case of CN[C@H](CC(C)C)C(=O)N[C@H]1C(=O)N[C@@H](CC(N)=O)C(=O)N[C@H]2C(=O)N[C@H]3C(=O)N[C@H](C(=O)N[C@H](C(=O)O)c4cc(O)cc(O)c4-c4cc3ccc4O)[C@H](O)c3ccc(c(Cl)c3)Oc3cc2cc(c3O[C@@H]2O[C@H](CO)[C@@H](O)[C@H](O)[C@H]2O[C@H]2C[C@](C)(N)[C@H](O)[C@H](C)O2)Oc2ccc(cc2Cl)[C@H]1O [Vancomycin], the “known susceptibility information: susceptible or resistant” value (S. aureus IS-123 [5]) is given as “susceptible”, the “known susceptibility information: susceptible or resistant” value (S. aureus IS-120 [6]) is given as “susceptible” and the “known susceptibility information: susceptible or resistant” value (S. aureus IS-124 [7]) is given as “susceptible”. The “susceptibility or resistance by sensor response” value (S. aureus IS-124 [8]) was “susceptible”, the “susceptibility or resistance by sensor response” value (S. aureus IS-120 [9]; Vancomycin at 1-2 ug/ml) was “susceptibility” and the “susceptibility or resistance by sensor response” value (S. aureus IS-123 [10]; Vancomycin at 1-2 ug/ml) was “susceptibility”.
In the case of piperacillin/tazobactam [PIP/Tazo], the “known susceptibility information: concentration at which strain is susceptible” value (K. pneumoniae IS-007 [1]) is given as 4 µg/mL, the “known to be resistant” value (K. pneumoniae IS-133) is given as “below 128 ug/ml” and the “susceptibility or resistance by sensor response compared to control” value (K. pneumoniae IS-007 [2]; [11]) is given as “susceptibility”. The “susceptibility or resistance by sensor response compared to control” value (K. pneumoniae IS-020 [3]; [11]) was “susceptible” and the “known susceptibility information: concentration at which strain is susceptible” value (K. pneumoniae IS-020 [4]) was under 4 µg/mL.
